Laboratory results published in ChEMBL document CHEMBL3085717, “Structural and thermodynamic dissection of linear motif recognition by the E. coli sliding clamp” (J Med Chem, 2013).
Peptide text beside a SMILES is read from it.

Assay: Displacement of 5'-fluorescein(FAM)-QLDLF-OH from Escherichia coli AN1459 DNA polymerase 3beta by fluorescence polarization assay

Molecule | IC50 [µM] | Kd [µM]
CC(=O)N[C@@H](CC(C)C)C(=O)N[C@@H](Cc1ccccc1)C(=O)O (Ac-Leu-Phe-OH) | 1100 | 
Ac-QADLF-OH | 78.6 | 36.7
Ac-QLDAF-OH | 247 | 115
Ac-ALDLF-OH | 603 | 281
Ac-QLDLA-OH | 555 | 259
Ac-ELDLF-OH | 222 | 104
Ac-QLDVF-OH | 1220 | 567
Ac-GLDLF-OH | 976 | 456
Ac-QLDLG-OH | 1070 | 498
Ac-QLDGF-OH | 1520 | 711
CC(C)CCC(=O)N[C@@H](Cc1ccccc1)C(=O)O | 4440 | 
CC(C)C[C@H](NC(=O)[C@H](CC(=O)O)NC(=O)[C@H](CC(C)C)NC(=O)[C@@H](N)CCC(N)=O)C(=O)N[C@@H](Cc1ccccc1)C(=O)O | 63.2 | 29.5

Molecules with a lower IC50, results first:

IC50 [µM] | Molecule | Kd [µM]
36.1 | Ac-QGDLF-OH | 16.8
1.9 | CC(=O)N[C@@H](CCC(N)=O)C(=O)N[C@@H](CC(C)C)C(=O)N[C@@H](CC(=O)O)C(=O)N[C@@H](CC(C)C)C(=O)N[C@@H](Cc1ccccc1)C(=O)O | 0.9
3.4 | Ac-QLALF-OH | 1.6
21 | Ac-QLDLL-OH | 9.8
10.4 | Ac-QLGLF-OH | 4.9
43.6 | Ac-NLDLF-OH | 20.3
60.4 | Ac-QVDLF-OH | 28.2
